Assay results reported in publication PMC10289903 (Investigational New Drugs, 2023).
Read-outs that look alike come from different tables or passages of the source.

System: patients with locally advanced or metastatic solid tumors
Excerpt: This was a Phase Ib, multicenter, open-label, dose-finding clinical trial (NCT02610075). […] Three types of treatment schedules were investigated: cohorts bid 1, bid 2, qd 1.1, qd 2.1 and qd 3.1 received bid or qd treatment on a 5/9 schedule (5 days on treatment, followed by 9 days off) on a 14-day cycle. Cohorts qd 1.2, qd 2.2, and qd 3.2 received treatment on a 5/2 schedule (5 days on followed by 2 days off for 2 of 3 weeks) in a 21-day cycle. Cohorts qd 2.3 and qd 3.3 received treatment on a weekly 5/2 schedule in a 21-day cycle (Table 1). The highest dose level(s) at which less than one-third of evaluable patients (none of 3 patients or 1 of 6 patients) experienced a dose-limiting toxicity (DLT) was declared the MTD.
The per protocol analysis set was defined as a subset of the full analysis set, excluding subjects having an important protocol deviation, to be used for analyses of efficacy endpoints if appropriate.

[1] = qd 2.3: 250 mg qd 5/2 weekly (n=10)

## C=CCn1c(=O)c2cnc(Nc3ccc(N4CCN(C)CC4)cc3)nc2n1-c1cccc(C(C)(C)O)n1 [adavosertib, Adavosertib]
Qd 2.1: 250 mg qd 5/9 (n=4)
  Thrombocytopenia (treatment-related AE): 0 n (%)
  Urinary tract infection (treatment-emergent AE): 0 n (%)
  Vomiting (treatment-emergent AE): 0 n (%)
  Vomiting (treatment-related AE): 0 n (%)
Qd 2.2: 250 mg qd 5/2 (n=3)
  Abdominal pain (treatment-emergent AE): 0 n (%)
  Abdominal pain (treatment-related AE): 0 n (%)
  Alanine aminotransferase increased (treatment-emergent AE): 1 (33.3) n (%)
  Anemia (treatment-emergent AE): 1 (33.3) n (%)
  Anemia (treatment-related AE): 1 (33.3) n (%)
  Any AE (treatment-emergent): 3 (100) n (%)
  Any grade ≥ 3 AE: 3 (100.0) n (%)
  Any treatment-related AE: 3 (100) n (%)
  Any treatment-related grade ≥ 3 AE: 3 (100.0) n (%)
  Asthenia (treatment-emergent AE): 1 (33.3) n (%)
  Asthenia (treatment-related AE): 1 (33.3) n (%)
  Back pain (treatment-emergent AE): 1 (33.3) n (%)
  Constipation (treatment-emergent AE): 1 (33.3) n (%)
  Constipation (treatment-related AE): 1 (33.3) n (%)
  Cough (treatment-emergent AE): 1 (33.3) n (%)
  Decreased appetite (treatment-emergent AE): 1 (33.3) n (%)
  Decreased appetite (treatment-related AE): 0 n (%)
  Dehydration (treatment-emergent AE): 2 (66.7) n (%)
  Dehydration (treatment-related AE): 1 (33.3) n (%)
  Diarrhea (treatment-emergent AE): 2 (66.7) n (%)
  Diarrhea (treatment-related AE): 2 (66.7) n (%)
  Dizziness (treatment-emergent AE): 0 n (%)
  Dyspepsia (treatment-emergent AE): 0 n (%)
  Dyspepsia (treatment-related AE): 0 n (%)
  Dyspnea (treatment-emergent AE): 0 n (%)
  Edema peripheral (treatment-emergent AE): 0 n (%)
  Fall (treatment-emergent AE): 1 (33.3) n (%)
  Fatigue (treatment-emergent AE): 2 (66.7) n (%)
  Fatigue (treatment-related AE): 2 (66.7) n (%)
  Headache (treatment-emergent AE): 0 n (%)
  Hypokalemia (treatment-emergent AE): 1 (33.3) n (%)
  Insomnia (treatment-emergent AE): 0 n (%)
  Muscle spasms (treatment-emergent AE): 1 (33.3) n (%)
  Myalgia (treatment-emergent AE): 0 n (%)
  Myalgia (treatment-related AE): 0 n (%)
  Nausea (treatment-emergent AE): 2 (66.7) n (%)
  Nausea (treatment-related AE): 2 (66.7) n (%)
  Neutropenia (treatment-emergent AE): 0 n (%)
  Neutropenia (treatment-related AE): 0 n (%)
  Pneumonia (treatment-emergent AE): 1 (33.3) n (%)
  Pyrexia (treatment-emergent AE): 2 (66.7) n (%)
  Rash (treatment-emergent AE): 1 (33.3) n (%)
  Thrombocytopenia (treatment-emergent AE): 1 (33.3) n (%)
  Thrombocytopenia (treatment-related AE): 1 (33.3) n (%)
  Urinary tract infection (treatment-emergent AE): 1 (33.3) n (%)
  Vomiting (treatment-emergent AE): 2 (66.7) n (%)
  Vomiting (treatment-related AE): 2 (66.7) n (%)
[1]
  Abdominal pain (treatment-emergent AE): 2 (20.0) n (%)
  Abdominal pain (treatment-related AE): 0 n (%)
  Alanine aminotransferase increased (treatment-emergent AE): 1 (10.0) n (%)
  Anemia (treatment-emergent AE): 2 (20.0) n (%)
  Anemia (treatment-related AE): 1 (10.0) n (%)
  Any AE (treatment-emergent): 8 (80.0) n (%)
  Any grade ≥ 3 AE: 5 (50.0) n (%)
  Any treatment-related AE: 8 (80.0) n (%)
  Any treatment-related grade ≥ 3 AE: 4 (40.0) n (%)
  Asthenia (treatment-emergent AE): 0 n (%)
  Asthenia (treatment-related AE): 0 n (%)
  Back pain (treatment-emergent AE): 2 (20.0) n (%)
  Constipation (treatment-emergent AE): 2 (20.0) n (%)
  Constipation (treatment-related AE): 2 (20.0) n (%)
  Cough (treatment-emergent AE): 0 n (%)
  Decreased appetite (treatment-emergent AE): 3 (30.0) n (%)
  Decreased appetite (treatment-related AE): 2 (20.0) n (%)
  Dehydration (treatment-emergent AE): 5 (50.0) n (%)
  Dehydration (treatment-related AE): 2 (20.0) n (%)
  Diarrhea (treatment-emergent AE): 7 (70.0) n (%)
  Diarrhea (treatment-related AE): 7 (70.0) n (%)
  Dizziness (treatment-emergent AE): 2 (20.0) n (%)
  Dyspepsia (treatment-emergent AE): 0 n (%)
  Dyspepsia (treatment-related AE): 0 n (%)
  Dyspnea (treatment-emergent AE): 0 n (%)
  Edema peripheral (treatment-emergent AE): 2 (20.0) n (%)
  Fall (treatment-emergent AE): 2 (20.0) n (%)
  Fatigue (treatment-emergent AE): 3 (30.0) n (%)
  Fatigue (treatment-related AE): 2 (20.0) n (%)
  Headache (treatment-emergent AE): 0 n (%)
  Hypokalemia (treatment-emergent AE): 3 (30.0) n (%)
  Insomnia (treatment-emergent AE): 3 (30.0) n (%)
  Muscle spasms (treatment-emergent AE): 1 (10.0) n (%)
  Myalgia (treatment-emergent AE): 2 (20.0) n (%)
  Myalgia (treatment-related AE): 2 (20.0) n (%)
  Nausea (treatment-emergent AE): 3 (30.0) n (%)
  Nausea (treatment-related AE): 2 (20.0) n (%)
  Neutropenia (treatment-emergent AE): 1 (10.0) n (%)
  Neutropenia (treatment-related AE): 1 (10.0) n (%)
  Pneumonia (treatment-emergent AE): 1 (10.0) n (%)
  Pyrexia (treatment-emergent AE): 0 n (%)
  Rash (treatment-emergent AE): 2 (20.0) n (%)
  Thrombocytopenia (treatment-emergent AE): 3 (30.0) n (%)
  Thrombocytopenia (treatment-related AE): 3 (30.0) n (%)
  Urinary tract infection (treatment-emergent AE): 1 (10.0) n (%)
  Vomiting (treatment-emergent AE): 2 (20.0) n (%)
  Vomiting (treatment-related AE): 1 (10.0) n (%)
Qd 3.1: 300 mg qd 5/9 (n=4)
  Abdominal pain (treatment-emergent AE): 1 (25.0) n (%)
  Abdominal pain (treatment-related AE): 1 (25.0) n (%)
  Alanine aminotransferase increased (treatment-emergent AE): 0 n (%)
  Anemia (treatment-emergent AE): 1 (25.0) n (%)
  Anemia (treatment-related AE): 0 n (%)
  Any AE (treatment-emergent): 4 (100) n (%)
  Any grade ≥ 3 AE: 3 (75.0) n (%)
  Any treatment-related AE: 2 (50.0) n (%)
  Any treatment-related grade ≥ 3 AE: 1 (25.0) n (%)
  Asthenia (treatment-emergent AE): 0 n (%)
  Asthenia (treatment-related AE): 0 n (%)
  Back pain (treatment-emergent AE): 1 (25.0) n (%)
  Constipation (treatment-emergent AE): 1 (25.0) n (%)
  Constipation (treatment-related AE): 0 n (%)
  Cough (treatment-emergent AE): 1 (25.0) n (%)
  Decreased appetite (treatment-emergent AE): 0 n (%)
  Decreased appetite (treatment-related AE): 0 n (%)
